Measurements reported in patent US9078868B2, “Therapeutic agent for accelerating recovery of animal under medical treatment” (UNIVERSITY OF MIYAZAKI, priority 2010, dated 2015).
No end group written: not given here. *: point of attachment. Octanoyl = CCCCCCCC(=O)*

Experiments:
[1] = tested on: animals which did not ingest food after administration of ghrelin; assay: Example 4: improvement in animals which did not ingest food after administration of ghrelin; assay type: in vivo, canines and felines
From the text: Diseases: Rib fracture, chronic renal failure, falling accident, infectious respiratory syndrome, hemobartonellosis, FIV, FELV infection, CPV infection, habu bite, diarrhea, vomiting, mammary gland tumor, traffic accident, fracture surgery, urinary retention, renal failure, urethroplasty, urinary retention, forelimb trauma Number of animals: 15 Activity improved: 11/13 (2, not evaluated; 2 unchanged) GPT value improved: 3/3 GOT value improved: 2/2 BUN value improved: 2/2 CRE value improved: 2/2 CPK value improved: 1/1 ALP value improved: 1/1 WBC value improved: 1/1 (decreased) PLT value improved: 2/2 Body temperature decreased: 2/2

[2] = tested on: hospitalized animals (canines and felines) after surgery; assay: Example 1: single dose of ghrelin in hospitalized animals after surgery, parameters before vs after administration; assay type: in vivo; conditions: for Body temperature: animals improved/animals evaluated / Biochemical tests: animals improved/animals evaluated / Body temperature: response rate / Activity (vigor): animals improved/animals evaluated / Hematology tests: animals improved/animals evaluated: single dose
Experimental: In these Examples, a canine-derived ghrelin (a peptide compound in which a side chain hydroxyl group of the serine residue at the 3rd position from the amino terminus is acylated with an n-octanoyl group in SEQ ID NO: 1) was used as ghrelin. The canine-derived ghrelin was chemically synthesized and then lyophilized, and a canine-derived ghrelin for administration containing 0.1, 0.3, 0.5, or 1 mg per vial of a canine-derived ghrelin was prepared.
To administer ghrelin to animals, the canine-derived ghrelin was dissolved to a concentration of 1 mg/2 mL in physiological saline and intravenously, subcutaneously, or intramuscularly injected after the dose was adjusted depending on the body weight.
Animals hospitalized in veterinary hospitals, particularly canines and felines, were used for treatment. These animals may or may not have undergone a surgery for treatment. The surgeries performed on the animals were pyometra surgery, surgical removal of a reproductive organ, surgical removal of mammary gland tumor, ovary cyst surgery, liver cell tumor surgery, disc hernia surgery, diaphragmatic hernia surgery, fracture surgery, gastrointestinal tract surgery, and urethroplasty.
Physical conditions in animals with various pathological conditions were examined by measuring parameters including activity (vigor), blood cell test values, biochemical test values, urinalysis, electrolyte tests, body weight, body temperature, the degree of anger or anxiety, respiratory rate, and the like to evaluate the effect of improving physical conditions in the animals. The effect was evaluated by comparing various evaluation parameters before and after administration.
The evaluation parameters used were activity (vigor), body temperature, hematology parameters (blood cell test values), serum biochemistry parameters (biochemical test values), the degree of anger or anxiety, and respiratory rate. […] The degree of anger or anxiety of an animal observed visually by an observer were also evaluated using the following criteria: 1. calm and accustomed to a health care professional, 2. able to be touched by but unaccustomed to a health care professional and restless, 3. wandering around or hiding in the kennel with anxiety, 4. able to be barely touched, and 5. too violent to be touched by a health care professional and tends to bite.
13.2 to 80 μg/kg of a canine-derived ghrelin (chemically synthesized) was administered by an intravenous injection, a subcutaneous injection, or an intramuscular injection (solution for an injection: physiological saline or the like) to 32 animals (canines and felines) after surgery which were hospitalized in veterinary hospitals. The 32 cases of the animals were as follows.
Pyometra surgery and surgical removal of reproductive organ, 18 animals; mammary gland tumor surgery, three animals (including one animal also having pyometra); disc hernia surgery, two animals; surgery for a fracture or a traffic accident injury, three animals; urethroplasty, three animals; gastrointestinal tract surgery, two animals; and pneumothorax surgery, one animal.
Improvement of physical conditions of these animals was evaluated in terms of activity (vigor), body temperature, hematology parameters (blood cell test values), and serum biochemistry parameters (biochemical test values).

[3] = animals which did not ingest food
[4] = gastrointestinal tract surgery, 2 animals
[5] = pyometra surgery and surgical removal of reproductive organ, 18 animals
[6] = surgical removal of mammary gland tumor, 3 animals
[7] = total, 32 animals after surgery

With “GSS (n-octanoyl) FLSPEHQKLQQRKESKKPPAKLQPR (GSS(Octanoyl)FLSPEHQKLQQRKESKKPPAKLQPR; listed as Canis familiaris) [ghrelin, chemically synthesized, lyophilized]” the “Activity improved: animals improved/animals evaluated” value ([1]; 15 animals which did not ingest food, 2 not evaluated, 2 unchanged) was 11/13, the “ALP value improved: animals improved/animals evaluated” value [1, 3] was 1/1 and the “BUN value improved: animals improved/animals evaluated” value [1, 3] was 2/2. For the same substance, the “Body temperature decreased: animals improved/animals evaluated” value [1, 3] was 2/2, the “CPK value improved: animals improved/animals evaluated” value [1, 3] was 1/1 and the “CRE value improved: animals improved/animals evaluated” value [1, 3] was 2/2. The “GOT value improved: animals improved/animals evaluated” value [1, 3] was 2/2, the “GPT value improved: animals improved/animals evaluated” value [1, 3] was 3/3 and the “PLT value improved: animals improved/animals evaluated” value [1, 3] was 2/2. The “WBC value improved (decreased): animals improved/animals evaluated” value [1, 3] was 1/1, the “Body temperature: animals improved/animals evaluated” value ([2]; disc hernia surgery, 2 animals) was 1/1 and the “Serum creatinine (Cre) value after administration” value ([2]; example, animal after surgery, before administration 6.0 mg/dL) was 1.1 mg/dL. The “Blood urea nitrogen (BUN) value after administration” value ([2]; example, animal after surgery, before administration 44.2 mg/dL) was 29.3 mg/dL, the “Total cholesterol (T-CHO) value after administration” value ([2]; example, animal after surgery, before administration 405 mg/dL) was 260 mg/dL and the “Glutamic pyruvic transaminase (GPT) value after administration” value ([2]; example, animal after surgery, before administration 180 IU/L) was 85 IU/L. The “Alkaline phosphatase (ALP) value after administration” value ([2]; example, animal after surgery, before administration 345 IU/L) was 286 IU/L, the “Creatinine phosphokinase (CPK) value after administration” value ([2]; example, animal after surgery, before administration 1429 IU/L) was 955 IU/L and the “C-reactive protein (CRP) value after administration” value ([2]; example, animal after surgery, before administration upper limit of measurement) was 7.3 mg/dL. The “White blood cell count after administration” value ([2]; example, animal after surgery, high count decreased, before administration 44.1×10^3/μL) was 17700 µL⁻¹, the “Platelet count after administration” value ([2]; example, animal after surgery, low count increased, before administration 13.9×10^4/μL) was 585000 µL⁻¹ and the “Red blood cell count after administration” value ([2]; example, animal after surgery, low count increased, before administration 214×10^4/μL) was 3.04e+06 µL⁻¹. For the same substance, the Hemoglobin level after administration ([2]; example, animal after surgery, low level increased) was 7.7 g/dL, the “Biochemical tests: animals improved/animals evaluated” value [2, 4] was 1/1 and the “Body temperature: animals improved/animals evaluated” value [2, 4] was 1/1. For the same substance, the “Body temperature: animals improved/animals evaluated” value ([2]; pneumothorax surgery, 1 animal) was 0/1, the “Body temperature: response rate” value ([2]; pneumothorax surgery, 1 animal) was “(0%)” and the “Activity (vigor): animals improved/animals evaluated” value [2, 5] was 6/7. For the same substance, the “Biochemical tests: animals improved/animals evaluated” value [2, 5] was 3/3, the “Body temperature: animals improved/animals evaluated” value [2, 5] was 3/4 and the “Hematology tests: animals improved/animals evaluated” value [2, 5] was 3/4. The “Activity (vigor): animals improved/animals evaluated” value ([2]; surgery for fracture or traffic accident injury, 3 animals) was 3/3, the “Activity (vigor): animals improved/animals evaluated” value [2, 6] was 2/2 and the “Biochemical tests: animals improved/animals evaluated” value [2, 6] was 1/1. For the same substance, the “Body temperature: animals improved/animals evaluated” value [2, 6] was 1/1, the “Hematology tests: animals improved/animals evaluated” value [2, 6] was 1/1 and the “Activity (vigor): animals improved/animals evaluated” value [2, 7] was 11/12. The “Biochemical tests: animals improved/animals evaluated” value [2, 7] was 5/6, the “Body temperature: animals improved/animals evaluated” value [2, 7] was 5/8 and the “Hematology tests: animals improved/animals evaluated” value [2, 7] was 4/6. For the same substance, the “Activity (vigor): animals improved/animals evaluated” value ([2]; urethroplasty, 3 animals) was 1/1, the “Biochemical tests: animals improved/animals evaluated” value ([2]; urethroplasty, 3 animals) was 1/2 and the “Body temperature: animals improved/animals evaluated” value ([2]; urethroplasty, 3 animals) was 0/1. The “Body temperature: response rate” value ([2]; urethroplasty, 3 animals) was “(0%)” and the “Hematology tests: animals improved/animals evaluated” value ([2]; urethroplasty, 3 animals) was 1/2.
